Data published in ChEMBL document CHEMBL1149219, “Binding of beta-carbolines at imidazoline I2 receptors: a structure-affinity investigation” (Bioorg Med Chem Lett, 2004).

Legend:
[1] = biological target: T1, Adrenergic receptor alpha-2 (Rattus norvegicus, UniProt P22086+P19328+P22909); test: Binding affinity at alpha-2 adrenergic receptors of rat.; type: protein assay
T1 sequence (P22086 whole entry): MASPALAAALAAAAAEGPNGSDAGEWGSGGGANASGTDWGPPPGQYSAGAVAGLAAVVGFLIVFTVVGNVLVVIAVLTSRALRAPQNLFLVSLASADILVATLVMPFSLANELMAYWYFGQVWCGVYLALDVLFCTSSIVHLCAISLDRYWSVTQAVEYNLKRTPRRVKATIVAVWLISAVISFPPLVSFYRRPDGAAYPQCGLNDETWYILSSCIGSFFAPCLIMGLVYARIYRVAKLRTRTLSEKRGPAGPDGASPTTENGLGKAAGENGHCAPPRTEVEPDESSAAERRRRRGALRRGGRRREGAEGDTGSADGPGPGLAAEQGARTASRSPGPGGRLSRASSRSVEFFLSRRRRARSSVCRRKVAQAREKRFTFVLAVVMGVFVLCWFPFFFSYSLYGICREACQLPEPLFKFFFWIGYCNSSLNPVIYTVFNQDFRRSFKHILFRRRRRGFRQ
T1 sequence (P19328 whole entry): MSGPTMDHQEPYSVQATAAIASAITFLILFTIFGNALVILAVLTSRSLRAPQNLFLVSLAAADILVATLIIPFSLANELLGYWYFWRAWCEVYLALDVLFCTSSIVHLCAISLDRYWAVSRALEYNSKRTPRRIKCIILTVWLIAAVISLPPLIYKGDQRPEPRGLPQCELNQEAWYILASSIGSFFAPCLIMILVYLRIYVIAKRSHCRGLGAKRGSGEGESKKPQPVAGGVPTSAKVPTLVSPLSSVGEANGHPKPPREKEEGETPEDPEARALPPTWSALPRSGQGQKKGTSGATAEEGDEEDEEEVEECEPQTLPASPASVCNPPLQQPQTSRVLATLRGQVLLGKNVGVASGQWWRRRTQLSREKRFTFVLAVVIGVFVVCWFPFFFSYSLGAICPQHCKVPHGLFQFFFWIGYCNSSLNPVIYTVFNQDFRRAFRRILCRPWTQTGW
T1 sequence (P22909 whole entry): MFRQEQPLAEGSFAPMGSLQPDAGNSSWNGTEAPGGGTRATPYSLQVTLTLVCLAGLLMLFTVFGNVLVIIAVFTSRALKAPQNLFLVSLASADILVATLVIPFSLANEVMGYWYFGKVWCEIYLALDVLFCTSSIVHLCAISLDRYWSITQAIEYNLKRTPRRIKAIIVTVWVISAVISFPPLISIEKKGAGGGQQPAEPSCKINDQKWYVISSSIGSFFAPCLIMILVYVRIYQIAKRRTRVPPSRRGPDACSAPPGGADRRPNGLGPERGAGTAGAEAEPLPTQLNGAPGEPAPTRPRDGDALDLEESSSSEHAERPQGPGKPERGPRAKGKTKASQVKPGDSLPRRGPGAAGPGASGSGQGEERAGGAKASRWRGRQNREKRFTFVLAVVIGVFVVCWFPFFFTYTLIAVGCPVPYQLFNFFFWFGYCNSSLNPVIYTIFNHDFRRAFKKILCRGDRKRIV

[2] = Binding affinity at rat imidazoline receptor I-2
[3] = biological target: 5-hydroxytryptamine receptor 2A (Rattus norvegicus, UniProt P14842); test: Binding affinity at 5-hydroxytryptamine 2A receptor of rat.
5-hydroxytryptamine receptor 2A, sequence (P14842 whole entry): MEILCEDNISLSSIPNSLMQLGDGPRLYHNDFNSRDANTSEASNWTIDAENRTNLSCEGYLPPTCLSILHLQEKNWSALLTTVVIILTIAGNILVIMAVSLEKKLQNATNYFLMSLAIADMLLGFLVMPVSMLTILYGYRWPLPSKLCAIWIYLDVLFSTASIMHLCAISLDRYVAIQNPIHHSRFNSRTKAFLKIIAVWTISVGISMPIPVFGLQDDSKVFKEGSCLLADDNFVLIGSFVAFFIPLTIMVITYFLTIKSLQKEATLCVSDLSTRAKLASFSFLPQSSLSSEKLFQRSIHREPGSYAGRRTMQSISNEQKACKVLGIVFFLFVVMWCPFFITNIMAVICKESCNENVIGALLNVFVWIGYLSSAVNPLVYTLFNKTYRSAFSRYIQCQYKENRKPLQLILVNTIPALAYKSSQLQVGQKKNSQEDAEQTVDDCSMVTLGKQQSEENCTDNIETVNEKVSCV

[4] = biological target: T2, Alpha-2A adrenergic receptor (Rattus norvegicus, UniProt P22909); test: Binding affinity at alpha-2 adrenergic receptor of rat.
T2 sequence (P22909 whole entry): T1 sequence (P22909 whole entry)

[5] = biological target: T3, Alpha-2B adrenergic receptor (Rattus norvegicus, UniProt P19328); test: Binding affinity at alpha 2B adrenergic receptor of rat.
T3 sequence (P19328 whole entry): T1 sequence (P19328 whole entry)

Row | SMILES | Ki [1] | Ki [2] | Ki [3] | Ki [4] | Ki [5]
1 | COc1cccc2[nH]c3c(c12)CCN=C3 | 330 nM | 84 nM | – | – | –
2 | COc1ccc2c3c([nH]c2c1)C=NCC3 [CGS-19281A] | > 10000 nM | 18 nM | – | – | –
3 | C1=NCCc2c1[nH]c1ccccc21 | 700 nM | 7.3 nM | – | – | –
4 | c1ccc2c3c([nH]c2c1)CNCC3 [TRYPTOLINE] | – | 9.4 nM | – | – | –
5 | NCCc1c[nH]c2ccccc12 [TRYPTAMINE] | 19000 nM | 5400 nM | – | – | –
6 | Cn1c2c(c3ccccc31)CCNCC2 [PNU-22394] | 415 nM | 1030 nM | – | – | –
7 | Brc1ccc2[nH]c3c(c2c1)CCNC3 | 11500 nM | 2780 nM | – | – | –
8 | COc1cc(Br)c2c3c([nH]c2c1)CNCC3 | – | 1740 nM | – | – | –
9 | COc1cccc2c3c([nH]c12)CNCC3 | 640 nM | 270 nM | – | – | –
10 | COc1cccc2[nH]c3c(c12)CCNC3 | 825 nM | 300 nM | – | – | –
11 | Brc1ccc2c3c([nH]c2c1)C=NCC3 | 10700 nM | 400 nM | – | – | –
12 | c1ccc2c3c([nH]c2c1)CCNC3 | 600 nM | 4.7 nM | – | – | –
13 | COc1cccc2c3c([nH]c12)C=NCC3 | 5020 nM | 160 nM | – | – | –
14 | Brc1ccc2c3c([nH]c2c1)CNCC3 | 15500 nM | 1290 nM | – | – | –
15 | NCc1c[nH]c2ccccc12 | 14700 nM | 3440 nM | – | – | –
16 | Brc1cccc2[nH]c3c(c12)CCN=C3 | 3160 nM | 86 nM | 180 nM | – | –
17 | Brc1cccc2[nH]c3c(c12)CCNC3 | 390 nM | 5.4 nM | – | – | –
18 | Brc1ccc2[nH]c3c(c2c1)CCN=C3 | 5290 nM | 790 nM | – | – | –
19 | COc1ccc2[nH]c3c(c2c1)CCN=C3 | 2190 nM | 480 nM | – | – | –
20 | COc1ccc2c(c1)[nH]c1cnccc12 | – | 87 nM | – | – | –
21 | COc1ccc2[nH]c3c(c2c1)CCNC3 | 7830 nM | 1640 nM | – | – | –
22 | Brc1cccc2c3c([nH]c12)CNCC3 | – | 3.6 nM | – | 460 nM | –
23 | COc1ccc2c3c([nH]c2c1)CNCC3 | – | – | > 1000 nM | – | 140 nM
24 | COc1ccc2c(c1)[nH]c1c(C)nccc12 [HARMINE] | – | 49 nM | – | – | –
25 | Cn1c2c(c3ccccc31)CCNC2 | – | 5.4 nM | – | – | –
26 | Brc1cccc2c3c([nH]c12)C=NCC3 | 815 nM | 17 nM | – | – | –
